Assay results from patent EP4763847A1 (Jiangsu Yahong Meditech Co., Ltd., priority 2023, dated 2025).

How the values were obtained:
HCT116 MTAP KO = assay: Cell proliferation inhibition (CellTiter Glo), HCT116 MTAP KO cells; type: cell-based; details: cultured 6 days with compound
Method: (§1) Test Example 2: Test of cell proliferation inhibition activity of the compounds
(§2) HCT116-WT (ATCC, CCL-247) and HCT116 MTAP KO (Cobioer Nanjing, CBP75002) cells were seeded into white low-transparency 96-well sterile cell culture plates at a density of 250 cells per well, respectively. The culture medium was McCoy's 5A Medium + 10% FBS. The plates were incubated overnight at 37°C with 5% CO2. The cells were treated with compounds gradiently with an initial concentration of 10000 nM, 4-fold dilution, and 8 concentration points. The last two columns were control wells with only DMSO added. The treated cells were continued to be cultured for 6 days. On the seventh day, 50 µL of CellTiter Glo® reagent was added to each well. After reacting on a shaker at room temperature for 10 minutes, the chemiluminescence signal in the plate was detected using the chemiluminescence detection method on a BIOTEK H1 multi-mode plate reader. […] Table 2: IC50 values of compounds for HCT116 MTAP KO/WT cell growth inhibition

HCT116-WT = assay: Cell proliferation inhibition (CellTiter Glo), HCT116-WT cells; type: cell-based; details: cultured 6 days with compound
Method: as §1, §2

PRMT5-MTA = PRMT5-MTA (Homo sapiens, UniProt O14744); assay: biochemical; details: IC50 (nM), PRMT5+MTA enzyme activity inhibition; PRMT5/MET50 protein 1 nM, 5'-deoxy-5'-adenosine 1 µM, SAM 2.5 µM, Histone H4 substrate 5 nM
PRMT5-MTA, sequence (O14744 whole entry): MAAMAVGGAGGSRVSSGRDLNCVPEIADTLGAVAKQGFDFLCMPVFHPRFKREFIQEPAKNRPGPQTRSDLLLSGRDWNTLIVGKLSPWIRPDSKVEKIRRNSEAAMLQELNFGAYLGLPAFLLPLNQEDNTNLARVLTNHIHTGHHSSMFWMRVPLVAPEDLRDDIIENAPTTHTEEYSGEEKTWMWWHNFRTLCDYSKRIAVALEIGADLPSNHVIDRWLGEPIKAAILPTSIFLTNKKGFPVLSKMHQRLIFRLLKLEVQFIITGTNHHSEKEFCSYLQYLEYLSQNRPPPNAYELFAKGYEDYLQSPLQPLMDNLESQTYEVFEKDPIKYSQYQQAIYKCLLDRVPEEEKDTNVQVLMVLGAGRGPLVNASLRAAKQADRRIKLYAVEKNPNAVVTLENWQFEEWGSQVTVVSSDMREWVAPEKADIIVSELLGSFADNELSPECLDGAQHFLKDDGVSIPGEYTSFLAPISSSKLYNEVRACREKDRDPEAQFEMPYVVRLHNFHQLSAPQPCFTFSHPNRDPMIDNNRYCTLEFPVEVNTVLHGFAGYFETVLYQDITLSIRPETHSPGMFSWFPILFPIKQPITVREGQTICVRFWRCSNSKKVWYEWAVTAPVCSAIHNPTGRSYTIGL
PRMT5-MTA, sequence (Q9BQA1 whole entry partner): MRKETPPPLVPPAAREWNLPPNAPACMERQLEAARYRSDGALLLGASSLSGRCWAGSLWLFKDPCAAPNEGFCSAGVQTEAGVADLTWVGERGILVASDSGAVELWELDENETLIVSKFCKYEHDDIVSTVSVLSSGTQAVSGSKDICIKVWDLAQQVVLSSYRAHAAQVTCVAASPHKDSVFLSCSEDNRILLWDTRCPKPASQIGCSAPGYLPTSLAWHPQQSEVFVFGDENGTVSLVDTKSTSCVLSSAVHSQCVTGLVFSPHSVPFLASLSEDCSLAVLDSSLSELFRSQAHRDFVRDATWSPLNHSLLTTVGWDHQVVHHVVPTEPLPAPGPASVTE
Method: The enzymatic inhibition activity of the compounds against PRMT5-MTA was detected using the AlphaScreen method. A 1× methyltransferase assay buffer IV (Signalchem) was prepared as a dilution solution for each component of the enzymatic reaction. […] The test compounds were added to all wells except the control wells in a 3-fold dilution series of 10 concentration points starting from 1000 nM using a Tecan D300e. After centrifugation at 1000 rpm for 1 minute in a centrifuge, the plate was incubated at 23°C for 15 minutes. Histone H4 substrate at a final concentration of 5 nM was added to the plate at 4 µL per well. After centrifugation at 1000 rpm for 1 minute in a centrifuge, the plate was reacted in an incubator at 23°C for 45 minutes. Anti-Histone H4 (symmetric dimethyl R3) antibody (Abcam) was pre-incubated with 50 µg/mL AlphaScreen Protein A Acceptor beads (PerkinElmer) at room temperature for 10 minutes, and then added to the plate in a volume of 10 µL per well, followed by reaction at room temperature for 1 hour. 10 µL of 50 µg/mL AlphaScreen Streptavidin Donor beads (PerkinElmer) were added to each well, and reacted at room temperature for 1 hour. The signal values in the plate were detected using the Alpha method on an Envision multi-mode plate reader. The IC50 values of the compounds for PRMT5/MET50 enzyme activity inhibition were calculated in Xlfit 5.0 software.

| Compound | IC50 (HCT116 MTAP KO; Homo sapiens, HCT-116, 144 h) | IC50 (HCT116-WT; 144 h) | IC50 (PRMT5-MTA) | IC50 (HCT116 MTAP KO) | IC50 (HCT116-WT) |
| --- | --- | --- | --- | --- | --- |
| CC(c1ncccn1)N(Cc1ccc(C(F)(F)F)cn1)C(=O)c1ccc(N=C(N)NO)nc1 (stereo not drawn) [Compound 12] | 55 nM | 210 nM | 3 nM | – | – |
| CC(c1ncccn1)N(Cc1ccc(C(F)(F)F)cn1)C(=O)c1ccc(N=C(N)N)nc1 (stereo not drawn) [Compound 7] | 422 nM | 1520 nM | 2.1 nM | – | – |
| CNC(N)=Nc1ccc(C(=O)N(Cc2ccc(C(F)(F)F)cn2)[C@H](C)c2cccc(F)c2F)cn1 [Compound 91] | 96 nM | 2010 nM | 2.2 nM | – | – |
| CNC(N)=Nc1ccc(C(=O)N(Cc2ccc(C(F)(F)F)cn2)C2CCCc3cccnc32)cn1 (stereo not drawn) [Compound 44] | – | – | 2.6 nM | 17 nM | 493 nM |
| CNC(N)=Nc1ccc(C(=O)N(Cc2ccc(-c3cnc4c(cnn4C)c3)cn2)[C@H](C)c2ccccc2F)cn1 [Compound 73] | 72 nM | 1080 nM | 6.5 nM | – | – |
| CNC(N)=Nc1ccc(C(=O)N(Cc2ccc(C(F)(F)F)cn2)C2CCCc3ccccc32)cn1 (stereo not drawn) [Compound 61] | 28 nM | 769 nM | 1.4 nM | – | – |
| CNC(N)=Nc1ccc(C(=O)N(Cc2ccc(-c3cnn(C(F)(F)F)c3)cn2)[C@H](C)c2ccccc2F)cn1 [Compound 69] | 50 nM | 643 nM | 4.8 nM | – | – |
| CN/C(N)=N\c1ccc(C(=O)N(Cc2ccc(C(F)(F)F)cn2)[C@@H]2CCCc3ccccc32)cn1 [Compound 96, (R,Z)-6-((amino(methylamino)methylene)amino)-N-(1,2,3,4-tetrahydronaphthalen-1-yl) -N-((5-(trifluoromethyl)pyridin-2-yl)methyl)nicotinamide] | 22 nM | 366 nM | 3.5 nM | – | – |
| CNC(N)=Nc1ccc(C(=O)N(Cc2ccc(C(F)(F)F)cn2)C(C)c2cccc(C)c2)cn1 (stereo not drawn) [Compound 31, 6-((amino(methylamino)methylene)amino)-N-(1-(m-tolyl)ethyl)-N-((5-(trifluoromethyl)pyridin-2-yl)methyl)nicotinamide] | 302 nM | 3360 nM | 3.4 nM | – | – |
| CNC(N)=Nc1ccc(C(=O)N(Cc2ccc(C(F)(F)F)cn2)C(C)C2CC2)cn1 (stereo not drawn) [Compound 33] | 279 nM | 4000 nM | 1 nM | – | – |
| CN/C(N)=N\c1ccc(C(=O)N(Cc2ccc(C(F)(F)F)cn2)C(C)c2ncccc2F)cn1 (single isomer, unassigned) [Compound 65] | 30 nM | 569 nM | 5.4 nM | – | – |
| CNC(N)=Nc1ccc(C(=O)N(Cc2ccc(C(F)(F)F)cn2)C2CCCc3cccc(F)c32)cn1 (stereo not drawn) [compound 93] | 33 nM | 504 nM | 7.1 nM | – | – |
| CNC(N)=Nc1ccc(C(=O)N(Cc2ccc(C(F)(F)F)cn2)c2cccc3nccnc23)cn1 [Compound 50] | 25 nM | 512 nM | 1.7 nM | – | – |
| CNC(N)=Nc1ccc(C(=O)N(Cc2ccc(C(F)(F)F)cn2)n2ccc3cccnc32)cn1 [Compound 56, 6-((amino(methylamino)methylene)amino)-N-(1H-pyrrolo[2,3-b]pyridin-1-yl)-N-[(5-(trifluoromethyl)pyridin-2-yl)methyl)nicotinamide] | 36 nM | 536 nM | 5.8 nM | – | – |
| CN/C(N)=N\c1ccc(C(=O)N(Cc2ccc(C(F)(F)F)cn2)C2CCc3cccnc32)cn1 (stereo not drawn) [Compound 92, (Z)-6-((amino(methylamino)methylene)amino)-N-(6,7-dihydro-5H-cyclopenta[b]pyridin-7-yl)-N-((5-(trifluoromethyl)pyridin-2-yl)methyl)nicotinamide] | 134 nM | 1480 nM | 1.6 nM | – | – |
| CN/C(N)=N\c1ccc(C(=O)N(Cc2ccc(-c3ccc(N4CCOCC4)nc3)cn2)[C@H](C)c2ccccc2F)cn1 [Compound 67, (R,Z)-6-((amino(methylamino)methylene)amino)-N-(1-(2-fluorophenyl)ethyl)-N-((6'-morpholino-[3,3'-bipyridin]-6-yl)methyl)nicotinamide] | 145 nM | 672 nM | 5.7 nM | – | – |
| CNC(N)=Nc1ccc(C(=O)N(Cc2ccc(C(F)(F)F)cn2)C(C)c2ccccc2C)cn1 (stereo not drawn) [Compound 41] | 931 nM | 3710 nM | 2.5 nM | – | – |
| CNC(N)=Nc1ccc(C(=O)N(Cc2ccc3ccsc3c2)[C@H](C)c2ccccc2F)cn1 [Compound 105] | 263 nM | 2230 nM | 5.7 nM | – | – |
| CN/C(N)=N\c1ccc(C(=O)N(Cc2ccc(C(C)(F)F)cn2)[C@H](C)c2ccccc2F)cn1 [Compound 76, (R,Z)-6-((amino(methylamino)methylene)amino)-N-((5-(1,1-difluoroethyl)pyridin-2-yl)methyl)-N-(1-(2-fluorophenyl)ethyl)nicotinamide] | 32 nM | 345 nM | 5.4 nM | – | – |

| Compound | IC50 (HCT116 MTAP KO; Homo sapiens, HCT-116, 144 h) | IC50 (HCT116-WT; 144 h) | IC50 (PRMT5-MTA) | IC50 (HCT116 MTAP KO) | IC50 (HCT116-WT) |
| --- | --- | --- | --- | --- | --- |
| CNC(N)=Nc1ccc(C(=O)N(Cc2ccc(C(F)(F)F)cn2)C(C)c2ccccn2)cn1 (stereo not drawn) [Compound 34] | 182 nM | 3480 nM | 1.8 nM | – | – |
| CNC(N)=Nc1ccc(C(=O)N(Cc2ccc(C(F)(F)F)cn2)[C@H]2CCc3ccccc32)cn1 [Compound 87] | 975 nM | 3310 nM | 2.7 nM | – | – |
| CNC(N)=Nc1ccc(C(=O)N(Cc2ccc(-c3cccnc3)cn2)[C@H](C)c2ccccc2F)cn1 [Compound 68] | 169 nM | 1990 nM | 7.7 nM | – | – |
| CN/C(N)=N\c1ccc(C(=O)N(Cc2ccc(C(F)(F)F)cn2)[C@H](C)c2ccc(F)cc2F)cn1 [Compound 82, (R,Z)-6-((amino(methylamino)methylene)amino)-N-(1-(2,4-difluorophenyl)ethyl)-N-((5-(trifluoromethyl)pyridin-2-yl)methyl)nicotinamide] | 18 nM | 226 nM | 4.2 nM | – | – |
| CNC(N)=Nc1ccc(C(=O)N(Cc2cscn2)[C@H](C)c2ccccc2F)cn1 [Compound 104] | 416 nM | > 10000 nM | 5.8 nM | – | – |
| CNC(N)=Nc1ccc(C(=O)N(Cc2ccc3cnccc3c2)[C@H](C)c2ccccc2F)cn1 [Compound 98] | 64 nM | 1090 nM | 8.7 nM | – | – |
| CNC(N)=Nc1ccc(C(=O)N(Cc2ccc(C(F)(F)F)cn2)c2cccc3cccnc23)cn1 [Compound 45, 6-((amino(methylamino)methylene)amino)-N-(quinolin-8-yl)-N-((5-(trifluoromethyl)pyridin-2-yl)methyl)nicotinamide] | 24 nM | 275 nM | 1 nM | – | – |
| CNC(N)=Nc1ccc(C(=O)N(Cc2ccc(C(F)(F)F)cn2)c2csc3cccnc23)cn1 [Compound 51] | 51 nM | 618 nM | 2.6 nM | – | – |
| CNC(N)=Nc1ccc(C(=O)N(Cc2ccc(C(F)(F)F)cn2)N(C)c2ncccn2)cn1 [Compound 113] | 49 nM | 2650 nM | 3.2 nM | – | – |
| CNC(N)=Nc1ccc(C(=O)N(Cc2ccccn2)[C@H](C)c2ccccc2F)cn1 [Compound 111] | 496 nM | 6450 nM | 3.7 nM | – | – |
| CNC(N)=Nc1ccc(C(=O)N(Cc2ccccc2)[C@H](C)c2ccccc2F)cn1 [Compound 99] | 445 nM | 3330 nM | 4.6 nM | – | – |
| CN/C(N)=N\c1ccc(C(=O)N(Cc2ccc(-c3ccc(N4CCN(C)CC4)nc3)cn2)[C@H](C)c2ccccc2F)cn1 [Compound 130, (R,Z)-6-((amino(methylamino)methylene)amino)-N-(1-(2-fluorophenyl)ethyl)-N-((6'-(4-methylpiperazin-1-yl)-[3,3'-bipyridin]-6-yl)methyl)nicotinamide] | 329 nM | 1570 nM | 9.7 nM | – | – |
| CN/C(N)=N\c1ccc(C(=O)N(Cc2ccc3nn(C)cc3c2)[C@H](C)c2ccccc2F)cn1 [Compound 97, (R,Z)-6-((amino(methylamino)methylene)amino)-N-(1-(2-fluorophenyl)ethyl)-N-((2-methyl-2H-indazol-5-yl)methyl)nicotinamide] | 353 nM | 5700 nM | 3.1 nM | – | – |
| CNC(N)=Nc1ccc(C(=O)N(Cc2ccc3c(cnn3C)c2)[C@H](C)c2ccccc2F)cn1 [Compound 102] | 50 nM | 667 nM | 2.6 nM | – | – |
| CN/C(N)=N\c1ccc(C(=O)N(Cc2ccc(C(F)(F)F)cn2)C(c2ccccc2F)C2CC2)cn1 (stereo not drawn) [Compound 94, (Z)-6-((amino(methylamino)methylene)amino)-N-(cyclopropyl(2-fluorophenyl)methyl) -N-((5-(trifluoromethyl)pyridin-2-yl)methyl)nicotinamide] | 49 nM | 912 nM | 6.6 nM | – | – |
| CNC(N)=Nc1ccc(C(=O)N(Cc2ccc(C)nc2)[C@H](C)c2ccccc2F)cn1 [Compound 109] | 658 nM | 7720 nM | 5.8 nM | – | – |
| CNC(N)=Nc1ccc(C(=O)N(Cc2cccc(F)c2)[C@H](C)c2ccccc2F)cn1 [Compound 110] | 508 nM | 3660 nM | 6.2 nM | – | – |
| CNC(N)=Nc1ccc(C(=O)N(Cc2ccc(F)cc2)[C@H](C)c2ccccc2F)cn1 [Compound 112] | 304 nM | 2340 nM | 6.1 nM | – | – |
